According to paper PMC3494675, “Structure-Function Analysis of the Glioma Targeting NFL-TBS.40-63 Peptide Corresponding to the Tubulin-Binding Site on the Light Neurofilament Subunit” (PLoS ONE, 2012):
Peptide text beside a SMILES is read from it. * marks the point of attachment. Biotin = O=C1N[C@H]2[C@H](CS[C@H]2CCCCC(=O)*)N1

What was measured:
glioma cells = settings: shown previously; cited from earlier work
Text: However, contrary to the known CPPs, which are composed mostly of arginines and lysines, the NFL-TBS.40-63 peptide contains only 2 arginine residues and no lysine. […] In addition, the cell penetrating activity appears to correlate with a particular structural pattern.

[1] = system: T98G human glioblastoma cells; test: Disintegration of the microtubule network in T98G cells (anti-tubulin immunostaining, cell counting); type: cell-based; settings: T98G cells, 10 µM biotinylated peptide, 6 hours; anti-tubulin immunostaining; minimum 200 cells per experiment; mean ± S.E.M., triplicated
Outline: (§1)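 Cells on cover slips were cultured 6 h with 10 μM biotinylated peptide, permeabilized, and stained with anti-β-tubulin plus fluorescent streptavidin. By fluorescence/confocal microscopy, ≥200 cells per experiment were scored for peptide uptake and for a normal versus destroyed microtubule network; at least three repeats.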

[2] = system: T98G human glioblastoma cells; test: Peptide incorporation into T98G cells (immunocytochemistry, cell counting); type: cell-based; settings: for Peptide incorporation (% of cells): T98G cells, 10 µM biotinylated peptide, 6 hours, Alexa-labeled avidin/streptavidin fluorescence microscopy, minimum 200 cells per experiment, mean ± S.E.M., triplicated
Outline: as §1

[3] = Structural (thermal) stability by circular dichroism at 220 nm; type: physicochemical
Procedure: Circular dichroism (CD) spectra were measured in a J-810 CD spectrometer (Jasco, Japan) in step mode (bandwidth: 2 nm; interval: 0.1 nm; response time: 0.125 s). The spectra were averaged over 3 scans to increase the signal to noise ratio. To optimize the measurements, a 1 cm×0.2 cm mini-quartz cell with four windows (Hellema, Germany) was used in such a way that the spectra from 260 to 200 nm were measured with a 1 cm pathlength and those between 220 and 185 nm with 0.2 cm pathlength. After normalization for pathlength (1 cm), the superimposition of two separated spectra in the 200–220 nm region was verified and the entire spectra reconstituted. The temperature of measurement was controlled with a Peltier-effect temperature controller, and was usually 20°C. […] All the CD experiments were performed with 20 µM peptide under 3 buffer conditions: pure water, 2 mM SDS and 10 mM potassium phosphate pH 7.4 with 200 mM KF.

[4] = Secondary structure estimation from CD spectra; type: physicochemical; settings: Reed's reference set
Procedure: Circular dichroism (CD) spectra were measured in a J-810 CD spectrometer (Jasco, Japan) in step mode (bandwidth: 2 nm; interval: 0.1 nm; response time: 0.125 s). The spectra were averaged over 3 scans to increase the signal to noise ratio. To optimize the measurements, a 1 cm×0.2 cm mini-quartz cell with four windows (Hellema, Germany) was used in such a way that the spectra from 260 to 200 nm were measured with a 1 cm pathlength and those between 220 and 185 nm with 0.2 cm pathlength. After normalization for pathlength (1 cm), the superimposition of two separated spectra in the 200–220 nm region was verified and the entire spectra reconstituted. The temperature of measurement was controlled with a Peltier-effect temperature controller, and was usually 20°C. The structural stability of peptides was studied by measuring the variation in CD signal at 220 nm (bandwidth: 10 nm; interval: 1 s; response time: 0.5 s; pathlength: 1 cm) when the temperature was increased by 1°C/min from 20 to 85°C. All the CD experiments were performed with 20 µM peptide under 3 buffer conditions: pure water, 2 mM SDS and 10 mM potassium phosphate pH 7.4 with 200 mM KF.
The secondary structures were estimated from the CD spectra with Jasco secondary structure estimation software. The spectra from […] were decomposed to α-helix, β-sheet, β-turn and random coil elements using either Reed's or Yang's reference set as reference spectrum of each element as described, [38]. We usually obtained better fits using Reed's reference.

[5] = system: Human adrenal carcinoma SW13 cells; test: Effect on MT network of SW13 cells (immunocytochemistry); type: cell-based; settings: 10 µM, 6 hours
Procedure: (§2) Figure 1 Internalization and effects on glioblastoma T98G cells of the wild type peptide NFL-TBS.40-63 and peptides from the alanine scan. (A): Human glioblastoma T98G cells were incubated in the presence of different peptides at 10 µM during 6 hours. MTs were detected by immunostaining using an anti-tubulin antibody (red), and biotinylated peptides were detected using Alexa-labeled avidin (green). While the original NFL-TBS.40-63 peptide is able to penetrate in these cells, the replacement of valine-14 by alanine typically abolished this property. White bars, 20 µm. (B) Human adrenal carcinoma SW13 cells were incubated in the presence of NFL-TBS.40-63 peptide (10 µM, 6 hours). MTs appear in red, peptide in green, nuclei in blue. White bars, 20 µm. (C): We quantified by microscopy the percentage of T98G cells containing the peptide and those with a destroyed MT network. Experiments were triplicated and a minimum of 200 cells was examined in each experiment. Data are presented as mean and S.E.M. (bars). Asterisks indicate significant level versus control: * p<0.05; ** p<0.005; *** p<0.001. As glioblastoma cells are known to have multiple mutations and abnormalities, the shaded area corresponds to the percentage of cells where MTs are disorganized even in the absence of peptide.
(§3) Cells were plated on cover slips and cultured in media containing biotinylated peptides (10 µM) for 6 hours. […]

[6] = system: Human adrenal carcinoma SW13 cells; test: Peptide entry into SW13 cells (immunocytochemistry); type: cell-based; settings: 10 µM, 6 hours
Procedure: as §2, §3

[7] = KF/phosphate buffer pH 7.4, 20 µM

**Q.** With `CC(C)C[C@H](NC(=O)[C@H](CO)NC(=O)[C@@H](NC(=O)[C@H](CCCNC(=N)N)NC(=O)[C@H](CCCNC(=N)N)NC(=O)[C@H](CO)NC(=O)[C@H](Cc1ccc(O)cc1)NC(=O)[C@H](CO)NC(=O)[C@H](CO)NC(=O)[C@H](CO)NC(=O)[C@H](CO)NC(=O)CNC(=O)[C@H](CO)NC(=O)CCCC[C@@H]1SC[C@@H]2NC(=O)N[C@@H]21)C(C)C)C(=O)N[C@@H](CO)C(=O)N[C@@H](CO)C(=O)N[C@@H](CO)C(=O)N[C@H](C(=O)N1CCC[C@H]1C(=O)N[C@@H](C)C(=O)N[C@@H](CO)C(=O)N[C@@H](Cc1ccc(O)cc1)C(=O)N[C@@H](CO)C(=O)N[C@@H](CO)C(=O)N[C@@H](Cc1ccc(O)cc1)C(N)=O)C(C)C` [NFL-SBT, reference compound] (Biotin-SGSSSSYSRRVSLSSSVPASYSSY-NH2) as the molecule, how does the “Cell penetration / internalization (in words)” value (glioma cells) read?
**A.** do not penetrate in cells

**Q.** And the “Disintegration of MT (% of cells)” value [1]?
**A.** 32.41±0.87 % of cells

**Q.** And the “Peptide incorporation (% of cells)” value [2]?
**A.** 0 % of cells

**Q.** With `CC(C)C[C@H](NC(=O)[C@H](CO)NC(=O)[C@H](CO)NC(=O)[C@H](CO)NC(=O)[C@@H](NC(=O)[C@@H]1CCCN1C(=O)[C@H](C)NC(=O)[C@H](CO)NC(=O)[C@H](Cc1ccc(O)cc1)NC(=O)[C@H](CO)NC(=O)[C@H](CO)NC(=O)[C@H](Cc1ccc(O)cc1)NC(=O)CCCC[C@@H]1SC[C@@H]2NC(=O)N[C@@H]21)C(C)C)C(=O)N[C@@H](CO)C(=O)N[C@H](C(=O)N[C@@H](CCCNC(=N)N)C(=O)N[C@@H](CCCNC(=N)N)C(=O)N[C@@H](CO)C(=O)N[C@@H](Cc1ccc(O)cc1)C(=O)N[C@@H](CO)C(=O)N[C@@H](CO)C(=O)N[C@@H](CO)C(=O)N[C@@H](CO)C(=O)NCC(=O)N[C@@H](CO)C(N)=O)C(C)C` [NFL-TBS.40-63] (Biotin-YSSYSAPVSSSLSVRRSYSSSSGS-NH2) as the molecule, how does the “Refolding on lowering temperature” value ([3]; CD 220 nm, KF/phosphate buffer, 70 to 10°C at 1°C per min and after 12 hours at 20°C) read?
**A.** no refolding was observed

**Q.** And the “Tm of thermal unfolding” value ([3]; CD signal at 220 nm, 20 µM peptide, KF/phosphate buffer (10 mM potassium phosphate pH 7.4, 200 mM KF), 1°C/min)?
**A.** about 40 °C

**Q.** And the “Structural stability with increasing temperature” value ([3]; CD, 20 µM peptide in 2 mM SDS, up to 70°C)?
**A.** stable

**Q.** What about the random coil content ([4]; 2 mM SDS, 20 µM) of the same molecule?
**A.** 40%

**Q.** What about the α-helix content ([4]; 2 mM SDS, 20 µM) of the same molecule?
**A.** 20%

**Q.** And the β-sheet content ([4]; 2 mM SDS, 20 µM)?
**A.** 40%

**Q.** What about the random coil content [4, 7] of the same molecule?
**A.** 36%

**Q.** And the α-helix content [4, 7]?
**A.** 7%

**Q.** What about the β-sheet content [4, 7] of the same molecule?
**A.** 56%

**Q.** What about the random coil content ([4]; pure water, 20 µM, 20°C) of the same molecule?
**A.** 75%

**Q.** And the β-sheet content ([4]; pure water, 20 µM, 20°C)?
**A.** 25%

**Q.** What about the “Effect on MT network of SW13 cells” value [5] of the same molecule?
**A.** without affecting the MT network

**Q.** And the “Entry into SW13 cells” value [6]?
**A.** enters in SW13 cells

**Q.** What about the “Disintegration of MT (% of cells)” value [1] of the same molecule?
**A.** 58.4±2.3 % of cells

**Q.** What about the “Peptide incorporation (% of cells)” value [2] of the same molecule?
**A.** 51.2±4.2 % of cells

**Q.** What about the “Cell penetration of the peptide once heated” value ([2]; peptide heated in KF/phosphate buffer (thermally unfolded)) of the same molecule?
**A.** could not penetrate into the cells
